Measurements reported in patent US6632616B2, “Compounds that selectively bind to expanded polyglutamine repeat domains and methods of use thereof” (Duke University, priority 2000, dated 2003).
No end group written: not given here.

Key:
thio-Q62 = experiment: Thioredoxin-polyglutamine turbidity (aggregation) assay, thio-Q62; type: biochemical; settings: for Ability to Inhibit Aggregation: 62 glutamines, 10 days
Procedure: (§1) Turbidity assays were performed in 200 μl reactions consisting of thioredoxin-polyglutamine in PBS in 96-well, low protein binding plates. Plates were incubated at 4° C. and turbidity measured at 405 nm on a Thermo Max plate reader (Molecular Devices).
(§2) Peptides were synthesized at the Howard Hughes Medical Institute peptide sequencing facility at Duke University with an acetylated amino terminus and protection of tryptophan with BOC during synthesis. Identical results were obtained with peptides obtained from Bio-Synthesis Inc. (Lewisville, Tex.). Stock solutions of peptides were prepared fresh daily by dissolving in dimethyl sulfoxide at 2.5 mM and incubated with thioredoxin-polyglutamine protein at 0.25-25 μM.
(§3) To monitor thioredoxin-polyglutamine protein aggregation a turbidometric assay was developed, similar to the assays commonly used to study microtubule assembly and β-amyloid aggregation (Jarrett, J. T. et al. (1993) Biochem 32, 4693-4697; Sloboda, R. D. et al. (1976) Biochem 15, 4497-4505). Solutions of thio-Q62 and 81 protein increased turbidity in a polyglutamine length-, time- and concentration-dependent manner (FIG. 1B and C; Time dependence of aggregation of thioredoxin-polyglutamine with 81 glutamines not shown). […] The pelleted and retained material was confirmed as thioredoxin-polyglutamine fusion protein containing 62 or 81 glutamines on western blots probed with anti-thioredoxin or anti-polyglutamine antibody (not shown). In contrast, thioredoxin-polyglutamine protein containing 19 or 35 glutamines (thio-Q19 or 35) was not pelleted by centrifugation and was not trapped by a 0.22 μm filter.

thio-Q19 or 35 = experiment: Thioredoxin-polyglutamine turbidity assay, nonpathologic thio-Q19 or 35; type: biochemical
Procedure: as §1, §2, §3

[1] = tested on: Q57-YFP induced cell death; experiment: Q57-YFP induced cell death in co-transfected COS-7 cells (ethidium homodimer); type: cell-based; settings: peptides fused to CFP, co-expressed; for inhibition of Q57-YFP induced cell death: COS-7, 48 hours, ethidium homodimer
Procedure: FIG. 5. […] Open bar=cells co-transfected with Q57-YFP and RAN-CFP. Hatched bar=cells co-transfected with Q57-YFP and SCR-CFP. Filled bar=cells co-transfected with Q57-YFP and QBP1-CFP. Dotted bar=cells co-transfected with Q57-YFP and (QBPI)2-CFP. COS-7 cells examined 48 hours after transfection using a Zeiss fluorescence microscope with rhodamine filter set. The percentage of dead cells was calculated by counting the number of transfected cells stained with ethidium homodimer and dividing by the total number of transfected cells multiplied times 100. In each experiment at least 200 transfected cells were counted. Experiments were repeated at least three times. Error bars represent standard errors. *=p<0.05; **=p<0.01 (Student's t-test).
(§4) COS-7 cells were grown and maintained in Dulbecco's modified Eagles' medium (DMEM) supplemented with 10% fetal calf serum (FCS). Cells were transfected with Effectene according to manufacturer's instructions (Qiagen GmbH, Hilden, Germany). Cells were examined 48 hours after transfection using a Zeiss fluorescence microscope equipped with YFP/CFP filter sets (Omega Optical Inc., Brattleboro, Vt.). The percentage of cells with aggregates was calculated by dividing the number of cells with aggregates by the total number of fluorescent cells, multiplied by 100. Cell viability was examined 48 hours after transfection using ehtidium homodimer (Molecular Probes, Eugene, Oreg.). Cells were incubated with 5 μM ethidium homodimer for 30 minutes (37° C.) and then examined under a fluorescence microscope equipped with a rhodamine filter set. Cells with nuclear fluorescence were counted as dead. In each experiment at least 200 transfected cells were counted. Cells expressing random peptide-CFP (RAN-CFP) and polyglutamine-YFP (Qn-YFP) were used as a control to calculate the relative difference in aggregate formation and cell death. Experiments were repeated at least four times.
The relationship between polyglutamine protein aggregation and cell death is controversial. To determine whether QBP1 or tandem-QBP1 inhibit polyglutamine-induced cell death, cell membrane permeability to ethidium homodimer was assayed. The membranes of living cells are impermeable to ethidium homodimer and permeability to ethidium homodimer is a well-established measure of cell death. Ethidium homodimer undergoes a 30-fold increase in fluorescence upon binding to nucleic acid allowing easy detection with a fluorescence microscope using a rhodamine filter. QBP1 and tandem QBP1 ((QBP1)2) fused to CFP inhibit Q57-YFP induced cell death (FIG. 5). […] Similar results have also been observed with Q45- and Q81-YFP (not shown).

Q81-YFP [2] = experiment: Peptides added to transfected COS 7 cells expressing Q81-YFP: aggregation; type: cell-based
From the text: (§5) Several proteins can ferry peptides or proteins into cells through the plasma membrane including HIV transactivator protein (TAT) (SEQ ID NO:37), antennapedia (SEQ ID NO:38), and herpes simplex virus type 1 protein 22 (SEQ ID NO:39) (Prochiantz, Curr Opin Cell Biol. 12:400-406 (2000)). […] The arginine-rich domains of these proteins are sufficient to transport some intact proteins even when fused to non-native proteins. The ability of polyglutamine-binding peptides fused to a TAT fragment to enter transfected COS 7 cells and inhibit polyglutamine aggregation and cell death was examined.

[3] = tested on: COS 7 cells expressing Q81-YFP; experiment: Peptides added to transfected COS 7 cells expressing Q81-YFP: cell death; type: cell-based
From the text: as §5

polyglutamine = experiment: In vitro polyglutamine aggregation, polyarginine transport peptide; type: biochemical
Q81-YFP [4] = experiment: Co-localization with Q81-YFP aggregates in co-transfected COS-7 cells; type: cell-based; settings: co-expression, 48 hours after transfection
Procedure: (§6) The CAG repeat of the Qn-GFP vector (Onodera, O. et al. (1996) FEBS Letters 399, 135-139) were inserted into the XhoI and EcoRI sites of the pEYFP-N1 vector (Clontech, Palo Alto, Calif.) to construct the Qn-YFP vectors. The polyglutamine-binding peptide and control constructs were prepared by ligating synthetic oligonucleotides into the XhoI and BamHI sites of the pECFP-N1 vector (Clontech) to obtain glutamine binding peptide 1-CFP (QBP1-CFP), scrambled QBP1-CFP (SCR-CFP), and a computer-generated random peptide-CFP (RAN)-CFP. The insert of QBP1-CFP was duplicated by PCR to obtain a tandem repeat of QBP1-CFP ((QBP1)2-CFP). The sequence of all constructs was confirmed by DNA sequencing. The first methionine of YFP or CFP was changed to isoleucine by PCR site-directed mutagenesis to eliminate translation of the fluorescent protein without the polyglutamine domain. The sizes of the fluorescent fusion proteins were confirmed by western blotting.
as §4, with “Experiments were repeated at least four times.” left out

Q45-YFP = Q45-YFP aggregate formation in co-transfected COS-7 cells; type: cell-based; settings: COS-7, 48 hours
Procedure: (§7) COS-7 cells examined 48 hours after transfection using a Zeiss fluorescence microscope with the CFP/YFP filter set from Omega Optical Inc. The percentage of cells with aggregates was calculated by counting the number of transfected cells containing aggregate and dividing by the total number of transfected cells multiplied times 100. In each experiment at least 200 transfected cells were counted. Experiments were repeated at least four times. Error bars represent standard errors. *=p<0.05;**=p<0.01 (Student's t-test) […]
(§8) COS-7 cells were grown and maintained in Dulbecco's modified Eagles' medium (DMEM) supplemented with 10% fetal calf serum (FCS). […] Cells were examined 48 hours after transfection using a Zeiss fluorescence microscope equipped with YFP/CFP filter sets (Omega Optical Inc., Brattleboro, Vt.). The percentage of cells with aggregates was calculated by dividing the number of cells with aggregates by the total number of fluorescent cells, multiplied by 100. […] Cells were incubated with 5 μM ethidium homodimer for 30 minutes (37° C.) and then examined under a fluorescence microscope equipped with a rhodamine filter set. Cells with nuclear fluorescence were counted as dead. In each experiment at least 200 transfected cells were counted. […]

Q57-YFP = Q57-YFP aggregate formation in co-transfected COS-7 cells; type: cell-based; settings: COS-7, 48 hours
Procedure: as §7, §8

Q81-YFP [5] = experiment: Q81-YFP aggregate formation in co-transfected COS-7 cells; type: cell-based; settings: COS-7, 48 hours
Procedure: as §7, §8

Q19-YFP = experiment: Intracellular distribution of Q19-YFP in co-transfected COS-7 cells; type: cell-based
Procedure: as §6, with “The first methionine of YFP or CFP was changed to isoleucine by PCR site-directed mutagenesis to eliminate translation of the fluorescent protein without the polyglutamine domain. The sizes of the fluorescent fusion proteins were confirmed by western blotting.” left out
as §8, with “dead.” for “dead. In each experiment at least 200 transfected cells were counted.”

Qn-YFP = experiment: Polyglutamine-YFP (Qn-YFP) aggregate formation in co-transfected COS-7 cells, all lengths; type: cell-based; settings: co-expression, 48 hours after transfection, FIG. 4
Procedure: COS-7 cells examined 48 hours after transfection using a Zeiss fluorescence microscope with the CFP/YFP filter set from Omega Optical Inc. The percentage of cells with aggregates was calculated by counting the number of transfected cells containing aggregate and dividing by the total number of transfected cells multiplied times 100. In each experiment at least 200 transfected cells were counted. Experiments were repeated at least four times. Error bars represent standard errors. *=p<0.05;**=p<0.01 (Student's t-test)
as §6, with “The first methionine of YFP or CFP was changed to isoleucine by PCR site-directed mutagenesis to eliminate translation of the fluorescent protein without the polyglutamine domain. The sizes of the fluorescent fusion proteins were confirmed by western blotting.” left out
as §8

[6] = 5 μm peptide and 15 μM thio-polyglutamine
[7] = TAT-fused peptides, 10 μm peptide and 15 μM thio-polyglutamine
[8] = versus random peptide fused to TAT

Chain of Q81-YFP (as listed by the source): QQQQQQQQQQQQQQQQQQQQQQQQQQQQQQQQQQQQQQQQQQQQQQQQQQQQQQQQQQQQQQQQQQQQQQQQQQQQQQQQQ
Chain of thio-Q62 (as listed by the source): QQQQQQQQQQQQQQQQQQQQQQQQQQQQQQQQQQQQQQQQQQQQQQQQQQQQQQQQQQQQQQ
Chain of Q45-YFP (as listed by the source): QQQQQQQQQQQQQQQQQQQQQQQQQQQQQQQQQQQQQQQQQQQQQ
Chain of Q57-YFP (as listed by the source): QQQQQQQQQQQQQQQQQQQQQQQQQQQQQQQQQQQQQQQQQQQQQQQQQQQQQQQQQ

## WPIWSKGNDWF [SCR, reference compound]
thio-Q62; turbidity at 405 nm, FIG. 2
  inhibition of thio-Q62 aggregation (in words): did not inhibit aggregation
thio-Q19 or 35
  effect on turbidity of nonpathologic thio-Q19 or 35: no effect
[1]
  inhibition of Q57-YFP induced cell death: does not inhibit cell death

## WKWWPGIFD-GGRRRRRRRR (WKWWPGIFDGGRRRRRRRR)
Q81-YFP [2]; peptide added to cells
  effect on aggregation in cells (in words): inhibits
[3]; peptide added to cells
  effect on cell death (in words): inhibits
polyglutamine
  inhibition of in vitro polyglutamine aggregation: inhibits

## SCR-CFP: scrambled QBP1 fused to cyan fluorescent protein (WPIWSKGNDWF; also: fused to cyan fluorescent protein) [reference compound]
Q81-YFP [4]
  co-localization with Q81-YFP aggregates: did not co-localize
Q45-YFP
  effect on Q45-YFP aggregation (in words): did not alter aggregation
Q57-YFP
  effect on Q57-YFP aggregation (in words): did not alter aggregation
Q81-YFP [5]
  effect on Q81-YFP aggregation (in words): did not alter aggregation

## WWWWPGIFD
thio-Q62; [6]
  Ability to Inhibit Aggregation: ++ (++ = 50% inhibition)

## WKWW
thio-Q62; peptides at 1 and 10 microMolar
  inhibition of polyglutamine-thioredoxin aggregation (FIG. 6 and 7): does not exhibit substantial inhibition of aggregation

## SNWKWWPGIFDSNWKWWPGIFD [(QBP1)2, tandem repeat of QBP1]
[1]
  inhibition of cell death compared with monomer QBP1: more effective
  inhibition of Q57-YFP induced cell death: inhibit

## QBP1-CFP: QBP1 fused to cyan fluorescent protein, expressed in COS-7 cells (SNWKWWPGIFD; also: fused to cyan fluorescent protein)
Q81-YFP [4]
  co-localization with Q81-YFP aggregates: co-localization
Q19-YFP
  effect of co-expression on Q19-YFP distribution: unaffected
Qn-YFP
  effect on percentage of cells with polyglutamine aggregates: reduced the percentage of cells with polyglutamine aggregates
Q45-YFP; compared to cells co-expressing RAN-CFP
  reduction of Q45-YFP aggregation: 39%

## WLWWPGIFD
thio-Q62; [6]
  Ability to Inhibit Aggregation: ++ (++ = 50% inhibition)

## WKWWPGIFD-TAT (WKWWPGIFDGGYGRKKRRQRRR)
thio-Q62; [7]
  Ability to Inhibit Aggregation: +++ (+++ = 75% inhibition)
Q81-YFP [2]; peptide added to cells
  percentage of transfected cells with Q81-YFP aggregates: 22.1%
Q81-YFP [2]; [8]
  inhibition of Q81-YFP aggregation: 32%
[3]; [8]
  inhibition of cell death: 39%
[3]; within 72 hours
  percentage of transfected cells that died: 6.0%

## WKWWVWKWW
thio-Q62; [6]
  Ability to Inhibit Aggregation: ++ (++ = 50% inhibition)

## WKWWVWKWWP
thio-Q62; [6]
  Ability to Inhibit Aggregation: ++++ (++++ = full inhibition)

## WKWWPWKWW-TAT (WKWWPWKWWGGYGRKKRRQRRR)
thio-Q62; [7]
  Ability to Inhibit Aggregation: ++++ (++++ = full inhibition)
